IC50 data for 59 compounds are collected here from PubChem BioAssay AID2305 (GlaxoSmithKline (GSK), 2010).

The experiment deals with P. falciparum 3D7 growth, pLDH absorbance. As to the kind of experiment: blood-stage malaria parasite growth potency – strain 3D7, dose response (AID 2305).
As usually defined, the IC50 is the concentration that gives 50% inhibition. A lower IC50 goes with inhibition by little substance. Compound `CN(C)c1cc(C(=O)N[C@@H](Cc2ccccc2)[C@H](O)CNC2CCCCC2)cc2[nH]ccc12` had an IC50 of 1070 nM. `CO/C(=C\C=C\c1cc2cc(Cl)c(Cl)cc2[nH]1)C(=O)NCCCN(C)CCN(C)c1ccccc1` gave an IC50 of 830 nM. The figure for `CCCCn1c(Sc2ccc(C#N)c([N+](=O)[O-])c2)nnc1-c1cccc(Cl)c1` is 760 nM; for `COc1cc2c(cc1S(=O)(=O)c1ccc(NC(=O)c3cccc(C(F)(F)F)c3)cc1)CCN(C)CC2` it is 1380 nM. As for `NC(=O)c1cccc(CNC(=O)NC[C@H]2CN(Cc3ccc(Cl)c(Cl)c3)CCO2)c1`, the concentration for half-maximal inhibition (IC50) was determined as 590 nM. For the compound `COC(=O)c1cc(C(O)CNC(C)CCCc2ccccc2)ccc1O` (centres undefined), the IC50 is 740 nM.

On to `N#Cc1cccc(NC(=O)NC2CCN(CCCCCNC(=O)/C=C/c3ccc(Cl)c(Cl)c3)CC2)c1`, for which the half-maximal inhibitory concentration (IC50) came to 710 nM. `COc1cc(OC)cc(-c2nn(-c3ccc([N+](=O)[O-])cc3C#N)c(=S)n2Cc2ccco2)c1`: the half-inhibitory concentration (IC50) was 580 nM.

For `CCOC(=O)N(C)/N=C/[C@H](CCc1ccccc1)NC(=O)[C@H](CC(C)C)NC(=O)c1cc2cccc(OC)c2o1`, the IC50 was determined as 560 nM. Consider `FC(F)(F)c1ccc(/C=C/c2cncnc2Nc2ccc3nc(Cc4ccccc4)[nH]c3c2)cc1`, for which the IC50 amounted to 610 nM. Consider `COc1cccc(C(=O)NC(c2ccc(Cl)cc2Cl)c2cc(Cl)c3cccnc3c2O)c1` (centres undefined), for which the half-maximal inhibitory concentration (IC50) was 450 nM. As to `CO/C(=C\C=C\c1cc2cc(Cl)c(Cl)cc2[nH]1)C(=O)NCC(C)(C)CN(C)C`, the half-inhibitory concentration (IC50) was 1160 nM.

`OC(CNc1ccnc(Nc2cccc(Cl)c2)n1)c1ccc(C(F)(F)F)cc1` (centres undefined) yielded a concentration for half-maximal inhibition (IC50) of 770 nM. On to `N#Cc1cccc(C(=O)N2CCOC(CCN3CCC(c4ccccc4)CC3)(c3ccc(Cl)c(Cl)c3)C2)c1` (centres undefined), for which the IC50 came out at 1040 nM. The figure for `CCN(CC)CCN(Cc1ccc(-c2ccc(C(F)(F)F)cc2)cc1)C(=O)Cn1c(SCc2ccc(F)cc2)cc(=O)c2ccccc21` is 750 nM. Take `CCc1ccccc1-c1csc(C(=O)NCC2CCN(Cc3ccc(C(C)(C)C)cc3)C2)c1` (centres undefined): the IC50 is 1150 nM.

In turn, `CN(C)c1ccc(CN2CCC(NC(=O)c3ccc(-c4cccc(C(F)(F)F)c4)s3)CC2)cc1` returned a 50% inhibitory concentration (IC50) of 1150 nM. With `COc1c(C2CCN(CCCCNC(=O)c3ccc(-c4ccc(C#N)cc4)c(O)c3)CC2)ccc2c1CCCC2`, the half-maximal inhibitory concentration (IC50) amounted to 200 nM. Then `Cc1cc(N[C@@H](Cc2ccccc2)C(=O)NCc2cccs2)nc(Nc2ccccc2)n1`, with 1240 nM; and `O=C(Nc1ccc(CCNCc2ccccc2)cc1)Nc1ccc(OC(F)(F)F)cc1`, with 580 nM; and `Cc1nnc(NC(=O)c2cn(-c3ccccc3)nc2-c2ccccc2C)o1`, with 560 nM. As to `CCNc1cc(C(=O)N[C@@H](Cc2ccccc2)[C@H](O)CNC23CC4CC(CC(C4)C2)C3)cc(N2CCCCS2(=O)=O)c1`, the half-maximal inhibitory concentration (IC50) turned out to be 220 nM. For the compound `CCc1ccc(NC(=O)c2ccc(CN3CCCN(CC4CCCCC4)CC3)cc2)cc1`, the concentration for half-maximal inhibition (IC50) came to 710 nM. In the case of `CCN(CC)CCCN(C(=O)Nc1c(Cl)cncc1Cl)c1nc(-c2ccc(F)cc2)cs1`, the half-maximal inhibitory concentration (IC50) was found to be 240 nM. Then `CC(=O)Nc1ncc(C(=O)Nc2cccc(-c3cccc(-c4nc5ccc(F)cc5[nH]4)c3)c2)s1`, with 450 nM; and `CN(C(=O)/C=C/c1c(Cl)cccc1Cl)C1CCN(CCCCCNC(=O)/C=C/c2ccc(Cl)c(Cl)c2)CC1`, with 360 nM; and `O=C(Nc1ccc(C2=NC3CCCCC3N2)cc1)Nc1ccc(C2=NC3CCCCC3N2)cc1` (centres undefined), with 180 nM. The figure for `COc1ccc(Cl)cc1N1CCN(CCCNC(=O)c2ccc(-c3nc4cc5ccccc5cc4[nH]3)c(F)c2)CC1` is 800 nM; for `c1ccc(CN2CCN(CCCCNc3c4ccccc4nc4ccccc34)CC2)cc1` it is 120 nM. The compound `CCN(CC)CCNc1ccnc2ccc3ccccc3c12` displayed an IC50 of 220 nM. Compound `CCCC(=O)Nc1ccc(OCCCCN(CC(C)(C)C)c2ccc(C#N)c(C(F)(F)F)c2)cc1` yielded an IC50 of 1350 nM.

As for `CCc1c(CCNCCCCCCNCCc2ccc(Br)cc2)ccc(O)c1O`, the IC50 came out at 900 nM. In turn, `O=C(Cc1cnc[nH]1)Nc1ccc(-c2cccc(-c3nc4ccc(F)cc4[nH]3)c2)cc1` yielded a 50% inhibitory concentration (IC50) of 800 nM.

`NCc1cccc(-c2ccc3ccnc(N)c3c2)c1` returned an IC50 of 170 nM. `CC(=NNC(=S)Nc1ccccc1Cl)c1ccccn1` registered a concentration for half-maximal inhibition (IC50) of 80 nM.

`CN1CCC(C(=O)N(Cc2ccc(-c3ccc(CNCCc4ccccc4)cn3)cc2)C2Cc3ccccc3C2)CC1` had an IC50 of 1060 nM. The figure for `COc1ccc2nccc(NN=Cc3ccccc3[N+](=O)[O-])c2c1` is 70 nM. Compound `COc1ccc2ncc(F)c(CCN3CC[C@H](NC(=O)c4ccc5c(n4)NC(=O)CS5)[C@H](O)C3)c2n1` had a half-inhibitory concentration (IC50) of 950 nM. For `CCCN(CCC)C(=O)c1cc(C(=O)N[C@@H](Cc2ccccc2)[C@H](O)CNC(C)(C)c2cccc(OC)c2)cc(N2CCCCS2(=O)=O)c1`, the IC50 is 30 nM.

For `Cc1oc(-c2ccc(Cl)cc2)cc1C(=O)NCCC1CCN(CCCCCNC(=O)/C=C/c2ccc(Cl)c(Cl)c2)CC1`, the concentration for half-maximal inhibition (IC50) worked out at 450 nM. The figure for `Clc1cccc(-c2nc(Nc3ccnc(-c4ccc(CN5CCOCC5)cc4)c3)c3ccccc3n2)c1` is 710 nM; for `COc1cc(-c2cc3cc(Cl)c(Cl)cc3[nH]2)ccc1C(=O)NC1CCN(Cc2ccccc2)CC1` it is 530 nM; for `COc1ccc(CN(C)CCCSc2ccc(NC(=O)c3cccc4c(=O)cc(-c5ccccc5)[nH]c34)cc2)cc1OC` it is 920 nM.

In the case of `O=C(Nc1ccc2nc3n(c(=O)c2c1)CCCCC3)C(=O)N1CCN(c2ccc(F)cc2)CC1`, the IC50 came to 640 nM. Take `OCCN1CCN(C(=S)NC2CCCCC2)CC1`: the half-inhibitory concentration (IC50) is 1100 nM. Compound `COc1nc(NCC(C)C)nc(Oc2ccc(=O)n(Cc3ccccc3)n2)n1` had a half-inhibitory concentration (IC50) of 630 nM. `COc1ccc2ncc(Cl)c(NCC3(O)CCC(NCc4ccc5c(n4)NC(=O)CS5)CC3)c2n1` (centres undefined) came in with a 50% inhibitory concentration (IC50) of 600 nM.

In turn, `COc1ccc(Cl)cc1N1CCN(CCCNC(=O)c2ccc(-c3nc4cc(Cl)c(F)cc4[nH]3)cc2)CC1` returned an IC50 of 1060 nM. Then `O=C(Nc1cccc(CN2CCCN(Cc3ncc[nH]3)CC2)c1)c1ccc(Cl)c(Cl)c1`, with 800 nM; and `CCCCCCn1c(Sc2ccc(C#N)c([N+](=O)[O-])c2)nnc1-c1ccccc1`, with 770 nM. `O=C(Nc1ccc(Cl)cc1)c1ccc(CN2CCCN(Cc3cccc(O)c3)CC2)cc1` registered an IC50 of 390 nM. Compound `CCCCN(CCCC)C(=NCCCCCCN=C(NC(N)=NCc1ccc(Cl)c(Cl)c1)N(CCCC)CCCC)NC(N)=NCc1ccc(Cl)c(Cl)c1` displayed a half-maximal inhibitory concentration (IC50) of 400 nM. `COc1cc(Cc2cnc(N)nc2N)cc(OCCCOc2ccccc2)c1OC` gave a 50% inhibitory concentration (IC50) of 1080 nM.

As to `O=C(/C=C/c1ccc(Cl)c(Cl)c1)N1CCC(CCN2CCC(c3c[nH]c4cnccc34)CC2)CC1`, the concentration for half-maximal inhibition (IC50) came out at 120 nM. Turning to `CCCCCN1CCCN(Cc2cccc(NC(=O)c3ccc4ccccc4c3)c2)CC1`, the concentration for half-maximal inhibition (IC50) was 1220 nM.

In the case of `NC1CCN(c2nc(NCCCc3ccc(O)cc3)nc(NCc3ccccc3-c3ccccc3)n2)CC1`, the IC50 is 680 nM. Compound `COc1ccc(-c2nonc2NC(=O)c2cccc(Cl)c2)cc1OC` came in with an IC50 of 880 nM.

As to `CC(C)c1sc(N2CCN(C)CC2)nc1C(=O)NCCc1cccc(Cl)c1`, the IC50 was determined as 1490 nM. As for `O=C(Nc1ccc(Cl)c(Cl)c1)C1CCC(=O)N1[C@@H](Cc1ccccc1)C(=O)NCCc1ccc(Cl)cc1` (some centres undefined), the IC50 turned out to be 1100 nM.
